Assay results taken from ChEMBL document CHEMBL5724696, “Autophagy assay results for EUbOPEN Chemogenomics Library” (2024).
Where “and” joins values, the source holds several entries; their conditions need not be identical. Equal values may be shown once.

Tests used:
Format in all cases: functional, Homo sapiens
[1] = tested on: U2OS; assay: (§1) Here: values are normalized to the negative (DMSO; defined as 0% autophagy induction) and positive (250nM Torin1; mTOR inhibitor; defined as maximal inducer of autophagy = 100%) control compounds and represented as % of autophagy induction. […] The impact of autophagy induction on cells is complex and depends on the affected target. As such, the magnitude of a phenotype may not be equally mirrored in the %-value of autophagy induction and vice versa. The dynamics of the induction may indicate the mode of activation: e.g. activation via phosphorylation or a signaling cascade may occur fast, while activation via transcription factors may take considerably longer. […] Of note, treatment concentrations may be sub-optimal for specific compounds, leading to false negative annotations.; conditions: Culturing Media DMEM, 1 % Penicillin/Streptomycin, 10% Fetal bovin serum Add-On: No, Screening Media Control DMEM, Screening Media Samples DMEM
[2] = tested on: TERT-RPE1; assay: as §1; conditions: Culturing Media DMEM/F12 (1:1), 1 % Penicillin/Streptomycin, 10% Fetal bovin serum Add-On: No, Screening Media Control DMEM/F12 (1:1), Screening Media Samples DMEM/F12 (1:1)
[3] = tested on: U2OS; assay: as §1; conditions: Culturing Media DMEM, 1 % Penicillin/Streptomycin, 10% Fetal bovin serum Add-On: No, Screening Media Control DMEM, Screening Media Samples DMEM; remark: listed apart in the source
[4] = Compound Concentration 0.5 uM, Timepoint 12 hours
[5] = Compound Concentration 0.5 uM, Timepoint 24 hours
[6] = Compound Concentration 0.5 uM, Timepoint 36 hours
[7] = Compound Concentration 0.5 uM, Timepoint 60 hours
[8] = Compound Concentration 2 uM, Timepoint 12 hours
[9] = Compound Concentration 2 uM, Timepoint 24 hours
[10] = Compound Concentration 2 uM, Timepoint 36 hours
[11] = Compound Concentration 2 uM, Timepoint 60 hours
[12] = Compound Concentration 10 uM, Timepoint 12 hours
[13] = Compound Concentration 10 uM, Timepoint 24 hours
[14] = Compound Concentration 10 uM, Timepoint 36 hours
[15] = Compound Concentration 10 uM, Timepoint 60 hours
[16] = Compound Concentration 0.5 uM, Timepoint 12 hours, 12 h, 0.5 µM
[17] = Compound Concentration 0.5 uM, Timepoint 24 hours, 24 h, 0.5 µM
[18] = Compound Concentration 0.5 uM, Timepoint 36 hours, 36 h, 0.5 µM
[19] = Compound Concentration 0.5 uM, Timepoint 60 hours, 60 h, 0.5 µM
[20] = Compound Concentration 2 uM, Timepoint 12 hours, 12 h, 2 µM
[21] = Compound Concentration 2 uM, Timepoint 24 hours, 24 h, 2 µM
[22] = Compound Concentration 2 uM, Timepoint 36 hours, 36 h, 2 µM
[23] = Compound Concentration 2 uM, Timepoint 60 hours, 60 h, 2 µM
[24] = Compound Concentration 10 uM, Timepoint 12 hours, 12 h, 10 µM

Compound	autophagy induction [1, 4]	autophagy induction [1, 5]	autophagy induction [1, 6]	autophagy induction [1, 7]	autophagy induction [1, 8]	autophagy induction [1, 9]	autophagy induction [1, 10]	autophagy induction [1, 11]	autophagy induction [1, 12]	autophagy induction [1, 13]	autophagy induction [1, 14]	autophagy induction [1, 15]	autophagy induction [3, 4]	autophagy induction [3, 5]	autophagy induction [3, 6]	autophagy induction [3, 7]	autophagy induction [3, 8]	autophagy induction [3, 9]	autophagy induction [3, 10]	autophagy induction [3, 11]	further results
c1cc(CN2CCCNCCNCCCNCC2)ccc1CN1CCCNCCNCCCNCC1 [PLERIXAFOR]	1.944%	-0.47%	1403.21%	-0.2952%	-1.895%	-4.5042%	-61.4276%	-2.96%	-9.041%	-7.066%	-62.672%	-3.919%	9.361%	4.086%	3.942%	-10.4654%	-10.5746%	-17.2139%	-19.8311%	-28.2789%	autophagy induction [2, 16]: -4.475% and 7.798%; autophagy induction [2, 17]: -3.816% and 9.011%; autophagy induction [2, 18]: -5.185% and 14.9232%; autophagy induction [2, 19]: -8.266% and 14.0932%; autophagy induction [2, 20]: -1.002% and 11.2768%; autophagy induction [2, 21]: -1.015% and 15.5767%; autophagy induction [2, 22]: -0.9806% and 19.0771%; autophagy induction [2, 23]: -1.796% and 21.8048%; autophagy induction [2, 24]: -0.2124% and 10.1362%; autophagy induction [3, 12]: -19.8514%; autophagy induction [3, 13]: -21.1534%; autophagy induction [3, 14]: -25.1466%; autophagy induction [3, 15]: -33.2742%
C[C@@H](NCCc1ccc(O)cc1)[C@@H](O)c1ccc(O)cc1.Cl (relative stereo)	-6.804%	-1.218%	-57.9641%	0.9422%	-7.529%	-0.8348%	-57.3104%	-0.1418%	-2.903%	-0.1533%	-57.4385%	1.624%	14.7038%	0.5598%	0.6043%	-0.5871%	18.1678%	-0.878%	-8.358%	-12.0518%	autophagy induction [2, 16]: 5.631% and 0.2084%; autophagy induction [2, 17]: 6.073% and -4.011%; autophagy induction [2, 18]: 3.7656% and -2.603%; autophagy induction [2, 19]: -3.104% and -1.391%; autophagy induction [2, 20]: 5.905% and 3.931%; autophagy induction [2, 21]: 4.872% and 1.792%; autophagy induction [2, 22]: 4.017% and -0.1457%; autophagy induction [2, 23]: -2.448% and 5.167%; autophagy induction [2, 24]: -0.5838% and 12.3967%; autophagy induction ([2]; Compound Concentration 10 uM, Timepoint 24 hours, 24 h, 10 µM): -3.853% and 16.5093%; autophagy induction [3, 12]: -0.9523%; autophagy induction [3, 13]: -16.8429%; autophagy induction [3, 14]: -21.0427%; autophagy induction [3, 15]: -26.9578%
O=C1O[C@]2(CC[C@H](C(=O)Nc3ccn(-c4ccccc4F)n3)CC2)c2cnccc21 [MK-0557]	3.984%	1.732%	0.4919%	114.165%	0.04111%	-0.7319%	-2.648%	114.407%	2.947%	-1.736%	-2.592%	114.447%	2.719%	-3.33%	-1.0176%	-10.434%	13.2836%	10.9196%	6.623%	2.549%	autophagy induction [3, 12]: 4.4586%; autophagy induction [3, 13]: 4.355%; autophagy induction [3, 14]: 0.9374%; autophagy induction [3, 15]: -12.6304%
CCc1ccc(OCc2ccccc2C(=O)Nc2ccc3nc(C)cc(N)c3c2)cc1.Cl	12.0081%	1.625%	-0.1664%	114.695%	-46.9081%	-13.0517%	3.022%	113.026%	98.6173%	63.101%	54.8449%	109.07%	21.0143%	14.8244%	13.2935%	10.1945%	66.4638%	63.0279%	63.192%	56.3816%	autophagy induction [3, 12]: 203.914%; autophagy induction [3, 13]: 166.946%; autophagy induction [3, 14]: 154.332%; autophagy induction [3, 15]: 150.102%
COc1cc(-n2cnc3cc(-c4ccc(Cl)cc4)sc3c2=O)ccc1OCCN1CCCC1	4.067%	-3.025%	-2.555%	114.356%	0.09165%	1.732%	0.6188%	114.522%	-26.0106%	-13.6231%	-7.579%	114.809%	-1.171%	2.823%	1.029%	-2.152%	-14.2965%	-7.54%	-8.816%	-10.4701%	autophagy induction [3, 12]: 7.721%; autophagy induction [3, 13]: 15.3334%; autophagy induction [3, 14]: 18.9257%; autophagy induction [3, 15]: 17.8082%
